US20250099420A1, “SMALL MOLECULE MODULATORS OF GPR139 COMPLEX” (University of Florida Research Foundation, Incorporated, priority 2022, published 2025)
Like-named read-outs stand apart in the source and are kept apart here.

Key:
[1] = biological target: T1, GPR139 (Homo sapiens, UniProt Q6DWJ6); test: GPR139 Agonist titration / agonist counterscreen assay (calcium detection, HEK-GPR139 cells); format: cell-based; set-up: expressed in transfected cells; host or cells: HEK Aequorin cells, Maxcyte transient transfection; conditions: GPR139 Agonist Activity; for Averaged Max % Response (±St. Dev.): activity relative to known control; for EC50: read-out: EC50
T1 sequence (Q6DWJ6 1-353): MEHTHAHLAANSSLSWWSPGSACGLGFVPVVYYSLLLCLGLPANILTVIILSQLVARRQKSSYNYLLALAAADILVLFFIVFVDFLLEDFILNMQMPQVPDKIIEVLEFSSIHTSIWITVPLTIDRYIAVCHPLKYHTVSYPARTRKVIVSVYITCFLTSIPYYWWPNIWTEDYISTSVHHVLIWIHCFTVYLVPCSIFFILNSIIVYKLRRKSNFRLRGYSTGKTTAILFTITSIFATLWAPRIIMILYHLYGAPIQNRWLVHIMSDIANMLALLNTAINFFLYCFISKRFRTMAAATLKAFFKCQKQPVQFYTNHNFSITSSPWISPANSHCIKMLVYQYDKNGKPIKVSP
Description: GPR activity was assessed using a calcium detection assay. […] Negative control samples were treated with DMSO. […] Intracellular calcium was measured using Calcium 5.

[2] = tested on: parental HEK cells; test: HEK parental Agonist Counterscreen Assay (non-transfected cells); format: cell-based; conditions: for Averaged Max % Response (±St. Dev.): activity relative to known control
From the text: The high control for the agonist counterscreen was Forskolin not acetylcholine.

[3] = values printed in E-notation without unit
[4] = Homo sapiens, HEK293, HEK Agonist Activity section of Table 4 (parental HEK counterscreen)
[5] = Homo sapiens, HEK293, HEK Agonist Activity, parental non-transfected HEK cells
[6] = HEK Agonist Activity section of Table 4 (parental HEK counterscreen)

| SMILES | Averaged Max % Response (±St. Dev.) [1] [%] | Lipophilic Efficiency (logD) ([1]; based on logD) | Lipophilic Efficiency (logP) ([1]; based on logP) | Hill Slope ([1]; fitted dose-response curve) | Efficiency Ligand ([1]; ligand efficiency) | EC50 [1, 3] [nM] | Lipophilic Efficiency (logD) ([2]; HEK Agonist Activity) | Lipophilic Efficiency (logP) ([2]; HEK Agonist Activity) | Averaged Max % Response (±St. Dev.) ([2]; HEK Agonist Activity) [%] | Lipophilic Efficiency (logD) ([2]; HEK Agonist Activity section) | Lipophilic Efficiency (logP) ([2]; HEK Agonist Activity section) | Averaged Max % Response (±St. Dev.) ([2]; HEK Agonist Activity section) [%] | EC50 [2, 4] [nM] | Efficiency Ligand [1] | Hill Slope [1] | Lipophilic Efficiency (logD) [1] | Lipophilic Efficiency (logP) [1] | EC50 ([1]; HEK-GPR139 cells) [nM] | further results |
| --- | --- | --- | --- | --- | --- | --- | --- | --- | --- | --- | --- | --- | --- | --- | --- | --- | --- | --- | --- |
| COc1ccc(C2(C)NC(=O)N(CC(=O)NC3CCCC3)C2=O)cc1 (centres unmarked) [SR-01000918718] | 106.93 ± 8.46 | 6.47 | 6.47 | 0.93 | 0.43 | 19.9 | 3.62 | 3.62 | 16.28 ± 3.44 | – | – | – | – | – | – | – | – | – | EC50 ([2]; HEK Agonist Activity, parental non-transfected HEK cells): > 14100 nM |
| C=C1CC(C)(c2ccc(OC)cc2)C(=C)C1CC(=O)CC1CCCCC1 (centres unmarked) [SR-01000918719] | 94.25 ± 9.34 | 5.17 | 5.17 | 0.65 | 0.37 | – | – | – | – | 3.17 | 3.17 | 19.77 ± 4.52 | > 14100 | – | – | – | – | – | – |
| COc1ccc(C2(C)NC(=O)N(CC(=O)NCc3ccc(F)cc3)C2=O)cc1 (centres unmarked) [SR-01000918720] | 107.14 ± 13.14 | 5.56 | 5.56 | 0.42 | 0.37 | 48.9 | – | – | – | 3.10 | 3.10 | 24.77 ± 3.77 | > 14100 | – | – | – | – | – | – |
| COc1ccc(C2(C)NC(=O)C(CC(=O)NCCc3ccccc3)C2=O)cc1 (centres unmarked) [SR-01000918721] | 107.86 ± 14.78 | 5.70 | 5.70 | 0.48 | 0.38 | 25.6 | 2.96 | 2.96 | 9.27 ± 15.15 | – | – | – | – | – | – | – | – | – | EC50 [2, 5]: > 14100 nM |
| CCOc1nn(CC)cc1-c1nnc(SCc2ccc(C(=O)OC)cc2)n1C [SR-01000919746] | 101.90 ± 10.65 | 3.89 | 3.89 | 0.63 | 0.38 | 28.1 | 1.19 | 1.19 | −13.54 ± 17.63 | – | – | – | – | – | – | – | – | – | EC50 [2, 5]: > 14100 nM |
| Cc1cc(-c2nnc(NC(=O)CCc3ccccc3)o2)n(C)n1 [SR-01000920602] | 90.23 ± 7.66 | – | – | – | – | – | – | – | – | 3.19 | 3.19 | −28.12 ± 1.91 | > 14100 | 0.39 | 0.91 | 4.83 | 4.83 | 325 | – |
| O=C(CCc1ccccc1)Nc1nnc(Cc2cccs2)o1 [SR-01000920660] | 83.52 ± 6.71 | – | – | – | – | – | – | – | – | 1.83 | 1.83 | −18.29 ± 7.41 | > 14100 | 0.41 | 1.17 | 3.39 | 3.39 | 387 | – |
| Cn1c(CCc2ccc(F)cc2F)nnc1C1=C(O)N=C2CC=CC21 (centres unmarked) [SR-01000922914] | 76.15 ± 6.21 | – | – | – | – | – | – | – | – | 0.70 | 0.70 | −4.64 ± 6.81 | > 14100 | 0.36 | 0.68 | 2.32 | 2.32 | 335 | – |
| COc1ccc(CCNC(=O)Nc2ccc3c(c2)CCCN3C(=O)C2CC2)cc1 [SR-01000923125] | 81.24 ± 9.74 | 4.30 | 4.30 | 2.01 | 0.37 | 23.7 | 1.53 | 1.53 | 32.19 ± 4.93 | – | – | – | – | – | – | – | – | – | EC50 [2, 5]: > 14100 nM |
| CCCN1C(=O)CCc2cc(NC(=O)NCCc3ccc(OC)cc3)ccc21 [SR-01000923206] | 74.00 ± 9.00 | – | – | – | – | – | – | – | – | 1.61 | 1.61 | −32.47 ± 4.02 | – | 0.31 | 1.67 | 2.98 | 2.98 | 604 | EC50 [2, 6]: > 14100 nM |
| Cc1cccc(NC(=O)NCCc2ccc3c(c2)CCCN3C)c1 [SR-01000923247] | 95.66 ± 12.25 | 3.21 | 3.21 | 0.45 | 0.43 | 37.1 | 0.63 | 0.63 | 20.62 ± 4.90 | – | – | – | – | – | – | – | – | – | EC50 [2, 5]: > 14100 nM |
| COc1cc(NC(=O)NCCc2ccc3c(c2)CCCN3C)cc(OC)c1 [SR-01000923249] | 93.59 ± 4.95 | 3.81 | 3.81 | 0.82 | 0.37 | 62.9 | – | – | – | 1.46 | 1.46 | 25.04 ± 3.96 | > 14100 | – | – | – | – | – | – |
| CCN1CCCc2cc(CCNC(=O)Nc3ccccc3)ccc21 [SR-01000923250] | 67.60 ± 3.63 | – | – | – | – | – | – | – | – | 0.79 | 0.79 | −2.96 ± 8.90 | > 14100 | 0.35 | 0.64 | 1.87 | 1.86 | 1200 | – |
| CCCC(=O)C1CCC(C(=O)CC2CCC(c3ccc(C(C)O)cc3)C2=O)CC1 (centres unmarked) [SR-01000924775] | 69.93 ± 11.99 | – | – | – | – | – | – | – | – | 3.42 | 3.42 | 10.92 ± 3.68 | > 14100 | 0.31 | 0.79 | 4.98 | 4.98 | 387 | – |
| Cc1onc(-c2ccccc2Cl)c1C(=O)N1CCC(Cn2ccnc2C)CC1 [SR-01000925002] | 86.62 ± 3.28 | – | – | – | – | – | – | – | – | 2.12 | 1.88 | 17.46 ± 3.54 | – | 0.31 | 0.51 | 3.41 | 3.17 | 727 | EC50 [2, 6]: > 14100 nM |
